From paper PMC4580985, “Calcium ions open a selectivity filter gate during activation of the MthK potassium channel” (Nature Communications, 2015)

target: T1, MthK (Methanothermobacter thermautotrophicus, UniProt O27564); assay: stopped-flow Tl+ flux (ANTS quench) in MthK liposomes, blocker equilibration time course; type: biochemical; conditions: read-out: KD^ap
T1 construct: MthK channel with pore and cytosolic gating ring (RCK), purified in decyl maltoside, Superdex 200, reconstituted in DOPC:POPG 3:1 liposomes
Excerpt: stopped-flow Tl+ flux (ANTS quench) in MthK liposomes, blocker equilibration time course on MthK

SMILES	Kd [nM]
CCCC[N+](CCCC)(CCCC)Cc1ccc(C(=O)c2ccccc2)cc1 [bbTBA, N-(4-[benzoyl]benzyl)-N,N,N-tributylammonium]	700 ± 200
CCCC[N+](CCCC)(CCCC)Cc1ccc(Br)cc1 [Br-bTBA, 4-bromobenzyltributylammonium bromide]	2600 ± 400
CCCCC[N+](CCCCC)(CCCCC)CCCCC [TPeA]	2100 ± 200
